Source: US7745619B2, “Vinca derivatives” (priority 2003, dated 2010)
Like-named read-outs stand apart in the source and are kept apart here.

Columns and labels:
HeLa S-3 cells = experiment: HeLa GI50 determination (SRB growth inhibition); format: cell-based, human; conditions: Homo sapiens, HeLa S3, 48 h
Procedure: Growth inhibition (GI50) values were measured on the human cervical carcinoma cell line, HeLa S-3, which were selected for growth on plastic. The HeLa cell assay was based on the description of Skehan et al., J. Natl. Cancer Inst., 82:1107-12 (1990), which is hereby incorporated by reference in its entirety. HeLa cells were plated at 2×10^4 cells/well in 96 well plates. One day later, a control plate was fixed by the addition of TCA to 5%. After five rinses with tap water, the plate was air-dried and stored at 4° C. Test compounds were added to the remaining plates at 10-fold dilutions. Two days later, all plates were fixed as described above. Cells were then stained by the addition of 100 μL per well of 0.4% sulforhodamine B (SRB) in 1% acetic acid for 30 min at 4° C. Wells were then quickly rinsed 5× with 1% acetic acid and allowed to air dry. The SRB was then solubilized by the addition of 100 μL per well of unbuffered 10 mM Tris base. Dye was quantified by measuring absorbance at 490 nm on a Molecular Devices microplate reader. Growth inhibition was calculated according to the following equation: GI=100×(T−T0)/(C−T0), where the optical density (OD) of the test well after 2 days of treatment was T, the OD of the wells in the control plate on day 0 was T0 and C was the OD of untreated wells. Plots of percent growth inhibition versus inhibitor concentration were used to determine the GI50.

MCF-7 cells = experiment: MCF-7 GI50 determination (crystal violet growth inhibition); format: cell-based, human; conditions: Homo sapiens, MCF7, 96 h
Procedure: Growth inhibition (GI50) values were measured on the human breast carcinoma line, MCF-7. MCF-7 cells were plated at 2×10^4 cells/well in 96 well plates and grown for 24 hours in drug free media. On day 2, test compounds were added to the plates at 10-fold dilutions. Four days later, cells were fixed by the addition of glutaraldehyde to 0.75%. After 30 min, the fixed cells were extensively rinsed with distilled water and dried at room temperature for one hour. The cells were then stained with a 0.2% crystal violet solution for one hour at room temperature. Unbound stain was removed by ten rinses with tap water and plates were allowed to air dry for 30 min. The crystal violet was then solubilized by the addition of 10% acetic acid for 15 min and quantified by measuring absorbance at 570 nm on a Molecular Devices microplate reader. Growth inhibition was calculated according to the following equation: GI=[…], where the optical density (OD) of the test well after 4 days of treatment was T, the OD of the wells in the control plate on day 0 was T0. Plots of percent growth inhibition versus inhibitor concentration were used to determine the GI50.

[1] = HeLa S-3 cells, 2 days of treatment, sulforhodamine B, read-out: HeLa Cells GI50
[2] = MCF-7 cells, 4 days of treatment, crystal violet, read-out: MCF-7 Cells GI50
[3] = read-out: MCF-7 Cells GI50 (nM)

| Compound | GI50 (HeLa S-3 cells; [1]) [nM] | GI50 (MCF-7 cells; [2]) [nM] | GI50 (HeLa S-3 cells; read-out: HeLa Cells GI50 (nM)) [nM] | GI50 (MCF-7 cells; [3]) [nM] |
| --- | --- | --- | --- | --- |
| CC[C@]1(O)C[C@H]2CN(CCc3c([nH]c4ccc(C#C[Si](C)(C)C)cc34)[C@@](C(=O)OC)(c3cc4c(cc3OC)N(C)[C@H]3[C@@](O)(C(=O)OC)[C@H](OC(C)=O)[C@]5(CC)C=CCN6CC[C@]43[C@@H]65)C2)C1 [Example 16, 12′-(trimethylsilylethynyl)vinblastine] | 300 | 40 | – | – |
| CC#Cc1ccc2[nH]c3c(c2c1)CCN1C[C@H](C[C@@](O)(CC)C1)C[C@]3(C(=O)OC)c1cc2c(cc1OC)N(C)[C@H]1[C@@](O)(C(=O)OC)[C@H](OC(C)=O)[C@]3(CC)C=CCN4CC[C@]21[C@@H]43 [Example 18, 12′-propynylvinblastine] | 300 | 300 | – | – |
| CC[C@]1(O)C[C@H]2CN(CCc3c([nH]c4ccc(C#CC(C)C)cc34)[C@@](C(=O)OC)(c3cc4c(cc3OC)N(C)[C@H]3[C@@](O)(C(=O)OC)[C@H](OC(C)=O)[C@]5(CC)C=CCN6CC[C@]43[C@@H]65)C2)C1 [Example 20, 12′-(3-methylbutynyl) vinblastine] | – | – | 500 | > 1000 |
| CC[C@]1(O)C[C@H]2CN(CCc3c([nH]c4ccc(C#CC(C)C)cc34)[C@@](C(=O)OC)(c3cc4c(cc3OC)N(C=O)[C@H]3[C@@](O)(C(=O)OC)[C@H](OC(C)=O)[C@]5(CC)C=CCN6CC[C@]43[C@@H]65)C2)C1 [Example 21, 12′-(3-methylbutynyl) vincristine] | – | – | 300 | 300 |
| CCCCC#Cc1ccc2[nH]c3c(c2c1)CCN1C[C@H](C[C@@](O)(CC)C1)C[C@]3(C(=O)OC)c1cc2c(cc1OC)N(C=O)[C@H]1[C@@](O)(C(=O)OC)[C@H](OC(C)=O)[C@]3(CC)C=CCN4CC[C@]21[C@@H]43 [Example 22, 12′-hexynylvincristine] | – | – | 300 | 300 |
| CCCCC#Cc1ccc2[nH]c3c(c2c1)CCN1C[C@H](C[C@@](O)(CC)C1)C[C@]3(C(=O)OC)c1cc2c(cc1OC)N(C)[C@H]1[C@@](O)(C(=O)OC)[C@H](OC(C)=O)[C@]3(CC)C=CCN4CC[C@]21[C@@H]43 [Example 23, 12′-hexynylvinblastine] | 40 | 50 | – | – |
| CC[C@]1(O)C[C@H]2CN(CCc3c([nH]c4ccc(C#CCN(C)C)cc34)[C@@](C(=O)OC)(c3cc4c(cc3OC)N(C)[C@H]3[C@@](O)(C(=O)OC)[C@H](OC(C)=O)[C@]5(CC)C=CCN6CC[C@]43[C@@H]65)C2)C1 [Example 24, 12′-(N,N-dimethylaminopropynyl)vinblastine] | – | – | 300 | 400 |
| C=Cc1ccc2[nH]c3c(c2c1)CCN1C[C@H](C[C@@](O)(CC)C1)C[C@]3(C(=O)OC)c1cc2c(cc1OC)N(C)[C@H]1[C@@](O)(C(=O)OC)[C@H](OC(C)=O)[C@]3(CC)C=CCN4CC[C@]21[C@@H]43 [Example 25, 12′-vinylvinblastine] | 3 | 9 | – | – |
| CCOC(=O)/C=C/c1ccc2[nH]c3c(c2c1)CCN1C[C@H](C[C@@](O)(CC)C1)C[C@]3(C(=O)OC)c1cc2c(cc1OC)N(C)[C@H]1[C@@](O)(C(=O)OC)[C@H](OC(C)=O)[C@]3(CC)C=CCN4CC[C@]21[C@@H]43 [Example 26, 12′-(2-ethoxycarbonylvinyl)vinblastine] | – | – | 165 | 70 |
| CC[C@]1(O)C[C@H]2CN(CCc3c([nH]c4ccc(/C=C/C(=O)OC(C)(C)C)cc34)[C@@](C(=O)OC)(c3cc4c(cc3OC)N(C)[C@H]3[C@@](O)(C(=O)OC)[C@H](OC(C)=O)[C@]5(CC)C=CCN6CC[C@]43[C@@H]65)C2)C1 [Example 27, 12′-(2-tert-butoxycarbonylvinyl) vinblastine] | – | – | 200 | 300 |
| CC[C@]1(O)C[C@H]2CN(CCc3c([nH]c4ccc(/C=C/C(=O)O)cc34)[C@@](C(=O)OC)(c3cc4c(cc3OC)N(C)[C@H]3[C@@](O)(C(=O)OC)[C@H](OC(C)=O)[C@]5(CC)C=CCN6CC[C@]43[C@@H]65)C2)C1 [Example 28, 12′-(2-carboxylvinyl) vinblastine] | – | – | 100 | 300 |
| CC[C@]1(O)C[C@H]2CN(CCc3c([nH]c4ccc(/C=C/C#N)cc34)[C@@](C(=O)OC)(c3cc4c(cc3OC)N(C)[C@H]3[C@@](O)(C(=O)OC)[C@H](OC(C)=O)[C@]5(CC)C=CCN6CC[C@]43[C@@H]65)C2)C1 [Example 30, 12′-(2-cyanovinyl) vinblastine] | – | – | 65 | 45 |
| CC[C@]1(O)C[C@H]2CN(CCc3c([nH]c4ccc(/C=C/CNC(=O)OC(C)(C)C)cc34)[C@@](C(=O)OC)(c3cc4c(cc3OC)N(C)[C@H]3[C@@](O)(C(=O)OC)[C@H](OC(C)=O)[C@]5(CC)C=CCN6CC[C@]43[C@@H]65)C2)C1 [Example 31, 12′-(3-tert-butoxycarbonylaminopropenyl) vinblastine] | – | – | 600 | 300 |
| CC[C@]1(O)C[C@H]2CN(CCc3c([nH]c4ccc(SCCCCO)cc34)[C@@](C(=O)OC)(c3cc4c(cc3OC)N(C)[C@H]3[C@@](O)(C(=O)OC)[C@H](OC(C)=O)[C@]5(CC)C=CCN6CC[C@]43[C@@H]65)C2)C1 [Example 32, 12′-(4-hydroxybutylsulfanyl)vinblastine] | – | – | 35 | 30 |
| CC[C@]1(O)C[C@H]2CN(CCc3c([nH]c4ccc(SCCCO)cc34)[C@@](C(=O)OC)(c3cc4c(cc3OC)N(C)[C@H]3[C@@](O)(C(=O)OC)[C@H](OC(C)=O)[C@]5(CC)C=CCN6CC[C@]43[C@@H]65)C2)C1 [Example 33, 12′-(4-hydroxypropylsulfanyl)vinblastine] | 20 | 30 | – | – |
| CC[C@]1(O)C[C@H]2CN(CCc3c([nH]c4ccc(SCCO)cc34)[C@@](C(=O)OC)(c3cc4c(cc3OC)N(C)[C@H]3[C@@](O)(C(=O)OC)[C@H](OC(C)=O)[C@]5(CC)C=CCN6CC[C@]43[C@@H]65)C2)C1 [Example 35, 12′-(2-hydroxyethylsulfanyl)vinblastine] | 200 | 60 | – | – |
| CC[C@]1(O)C[C@H]2CN(CCc3c([nH]c4ccc(SCc5ccc(OC)cc5)cc34)[C@@](C(=O)OC)(c3cc4c(cc3OC)N(C)[C@H]3[C@@](O)(C(=O)OC)[C@H](OC(C)=O)[C@]5(CC)C=CCN6CC[C@]43[C@@H]65)C2)C1 [Example 36, 12′-(4-methoxybenzylsulfanyl)vinblastine] | – | – | 30 | 50 |
| CC[C@]1(O)C[C@H]2CN(CCc3c([nH]c4ccc(SCc5ccccc5F)cc34)[C@@](C(=O)OC)(c3cc4c(cc3OC)N(C=O)[C@H]3[C@@](O)(C(=O)OC)[C@H](OC(C)=O)[C@]5(CC)C=CCN6CC[C@]43[C@@H]65)C2)C1 [Example 38] | – | – | 100 | 200 |
| CCCSc1ccc2[nH]c3c(c2c1)CCN1C[C@H](C[C@@](O)(CC)C1)C[C@]3(C(=O)OC)c1cc2c(cc1OC)N(C)[C@H]1[C@@](O)(C(=O)OC)[C@H](OC(C)=O)[C@]3(CC)C=CCN4CC[C@]21[C@@H]43 [Example 39, 12′-(propylsulfanyl) vinblastine] | 25 | 25 | – | – |
| CCSc1ccc2[nH]c3c(c2c1)CCN1C[C@H](C[C@@](O)(CC)C1)C[C@]3(C(=O)OC)c1cc2c(cc1OC)N(C=O)[C@H]1[C@@](O)(C(=O)OC)[C@H](OC(C)=O)[C@]3(CC)C=CCN4CC[C@]21[C@@H]43 [Example 40, 12′-(ethylsulfanyl) vincristine] | 6 | 8 | – | – |
| CCSc1ccc2[nH]c3c(c2c1)CCN1C[C@H](C[C@@](O)(CC)C1)C[C@]3(C(=O)OC)c1cc2c(cc1OC)N(C)[C@H]1[C@@](O)(C(=O)OC)[C@H](OC(C)=O)[C@]3(CC)C=CCN4CC[C@]21[C@@H]43 [Example 41, 12′-(ethylsulfanyl) vinblastine] | 2 | 3 | – | – |
| CC[C@]1(O)C[C@H]2CN(CCc3c([nH]c4ccc(SC)cc34)[C@@](C(=O)OC)(c3cc4c(cc3OC)N(C=O)[C@H]3[C@@](O)(C(=O)OC)[C@H](OC(C)=O)[C@]5(CC)C=CCN6CC[C@]43[C@@H]65)C2)C1 [Example 42, 12′-(methylsulfanyl) vincristine] | 3 | 3 | – | – |
